Laboratory results reported in patent publication US10526341B2, “Thienopyrimidines and uses thereof” (Memorial Sloan-Kettering Cancer Center, priority 2014, dated 2020).
pIC50: −log10 of the molar value. “Also recorded” adds a separate entry of the source.

Assays:
fibroblasts (MRCS) [1] = assay: MI-2-2 dose-response curve, cell survival (FIG. 19H); assay type: cell-based, human
Experimental: (§1) FIG. 19 depicts the chemical screen of the transformed NPCs. FIG. 19A is a schematic representation of the screening strategy. A mixture of GFP-labeled normal NPCs and RFP-labeled P5K cells in a 1:3 ratio were plated into 96-well plates and each compound in the library was added in a 2-fold serial dilution for a total of 8 doses. […] Error bars indicate S.D. (n=4). […] Intracranial growth of Luciferase-labeled P5K cells was measured by quantitative in vivo bioluminescence imaging. Values indicate fold change of luminescence before and after the treatment. […] Cells were treated with MI-2 for 7 days and the number of viable cells was counted by trypan-blue staining (n=4). Error bars in panels C-D, E, F and G indicate mean±S.D. *, p<0.05; **, p<0.01. NS, Not Significant. FIG. 19H represents a dose-response curve of MI-2-2.
(§2) The normal neural precursors are being analyzed for proof of maintained phenotype and differentiation ability, in further support of the safety profile of the drug used.

[2] = test system: DIPG patient-derived tumor line; assay: as above; assay type: cell-based, human
Experimental: as §1, §2

[3] = test system: normal neural precursors (NPC); assay: as above; assay type: cell-based, human
Experimental: as §1, §2

040114 xenografts = assay: GBM 040114 xenografts, bioluminescence imaging; assay type: in vivo, mice; settings: 40 mg/kg BID, after three weeks
Experimental: (§3) DIPG and glioblastoma cell lines were used to generate xenografts in NSG immunocompromised mice for in vivo testing. All lines used for xenografting were transfected lentiviral vectors encoding firefly luciferase to enable bioluminescence imaging (BLI). For DIPG xenografts, 100,000 DIGIV or DIPGVI cells were stereotactically injected into the pons of cold anesthetized P6 pups by transcutaneous injection. For GBM xenografts, 500,000 cells (030613 and 040114) were injected stereotactically into the striatum of 6 week old mice anesthetized with ketamine/xylazine cocktail. […] BLI was performed every week during treatment.
(§4) BLI was performed using the IVIS Lumina II system. D-Luciferin (10 uL of 15 mg/mL solution was instilled by retro-orbital injection in mice under […] anesthesia and 5 minute exposures were collected. Fold change over baseline pre-randomization imaging was calculated.

[4] = Pharmacokinetic profile of MI-2-2, blood and pons by LC-MS; assay type: in vivo, mice; settings: 30 mg/kg systemic MI-2-2
Experimental: (§5) Cell proliferation and apoptosis were assessed by immunofluorescence for Ki67 and TUNEL assays. After staining, Ki67 and TUNEL positive cells were manually counted to calculate a percentage of positive nuclei (see, e.g., FIG. 33). The pharmacokinetic profile of MI-2-2 was assessed by treating animals with 30 mg/kg and 60 mg/kg IP MI-2-2. Tail vein blood sampling and extraction of the pons was performed in animals at multiple time points and samples analyzed by LC-MS to generate a curve.
DIPIV xenografts were generated and are monitored monthly for BLI signal prior to randomization into treatment groups.

DIPGVI xenografts = assay: DIPGVI xenografts, bioluminescence imaging; assay type: in vivo, mice; settings: 60 mg/kg daily intraperitoneal, at 4 weeks
Experimental: as §3, §4

042314 = assay: alamarBlue cell viability, 12 point dose response, seven days; assay type: cell-based, human; settings: 042314, seven days
fibroblasts (MRCS) [5] = assay: as above; assay type: cell-based, human; settings: sub-micromolar doses
Experimental: (§6) Sensitivity to MI-2-2 was assessed by a 12 point dose response curve calculated after seven days of drug exposure and alamarBlue cell viability assay. Multiple patient tumor-derived DIPG (DIPGIV, DIPGVI, MSK-1, Peds8) and Glioblastoma (070909, 030613, 050715, 042315, 040811, 040114) were tested, with fibroblasts (MRCS), hES derived NPCs and astrocytes serving as controls (see FIGS. 29-33). Dose-response curves for the treatment of NPC, DIPGIV, and DIPGVI cell lines with MI-2-2, Panobinostat, and EPZ6438 are shown in FIG. 29.

Glioblastoma 050715 [6] = assay: as above; assay type: cell-based, human; settings: 050715, seven days
Experimental: as §6

Glioblastoma 040811 [7] = assay: as above; assay type: cell-based, human; settings: 040811, seven days
Experimental: as §6

SU-DIPGVI [8] = assay: as above; assay type: cell-based, human
Experimental: as §6

hES derived NPCs = assay: as above; assay type: cell-based, human; settings: sub-micromolar doses
Experimental: as §6

Glioblastoma 040114 [9] = assay: as above; assay type: cell-based, human; settings: 040114, seven days
Experimental: as §6

SU-DIPGIV [10] = assay: as above; assay type: cell-based, human
Experimental: as §6

Glioblastoma 030613 [11] = assay: as above; assay type: cell-based, human; settings: 030613, seven days
Experimental: as §6

Glioblastoma 070909 [12] = assay: as above; assay type: cell-based, human; settings: 070909, seven days
Experimental: as §6

Astrocytes [13] = assay: as above; assay type: cell-based, human; settings: sub-micromolar doses
Experimental: as §6

SU-DIPGVI [14] = assay: TUNEL apoptosis assay; assay type: cell-based, human; settings: pre-treatment 14.3
Experimental: as §5

Fibroblasts [15] = assay: TUNEL apoptosis assay; assay type: cell-based, human; settings: pre-treatment 0.4
Experimental: as §5

SU-DIPGIV [16] = assay: TUNEL apoptosis assay; assay type: cell-based, human; settings: pre-treatment 7.6
Experimental: as §5

NPC [17] = assay: TUNEL apoptosis assay; assay type: cell-based, human; settings: pre-treatment 3.8
Experimental: as §5

Glioblastoma 050715 [18] = assay: Ki67 immunofluorescence proliferation assay; assay type: cell-based, human; settings: pre-treatment 11.9
Experimental: as §5

Glioblastoma 040811 [19] = assay: Ki67 immunofluorescence proliferation assay; assay type: cell-based, human; settings: pre-treatment 28.4
Experimental: as §5

SU-DIPGVI [20] = assay: Ki67 immunofluorescence proliferation assay; assay type: cell-based, human; settings: pre-treatment 26.5, *p < 0.05
Experimental: as §5

Glioblastoma 040114 [21] = assay: Ki67 immunofluorescence proliferation assay; assay type: cell-based, human; settings: pre-treatment 56.0, *p < 0.05
Experimental: as §5

Fibroblasts [22] = assay: Ki67 immunofluorescence proliferation assay; assay type: cell-based, human; settings: pre-treatment 29.6
Experimental: as §5

SU-DIPGIV [23] = assay: Ki67 immunofluorescence proliferation assay; assay type: cell-based, human; settings: pre-treatment 34.9, *p < 0.05
Experimental: as §5

Glioblastoma 030613 [24] = assay: Ki67 immunofluorescence proliferation assay; assay type: cell-based, human; settings: pre-treatment 30.4, *p < 0.05
Experimental: as §5

NPC [25] = assay: Ki67 immunofluorescence proliferation assay; assay type: cell-based, human; settings: pre-treatment 10.6
Experimental: as §5

Glioblastoma 070909 [26] = assay: Ki67 immunofluorescence proliferation assay; assay type: cell-based, human; settings: pre-treatment 18.2, *p < 0.05
Experimental: as §5

Astrocytes [27] = assay: Ki67 immunofluorescence proliferation assay; assay type: cell-based, human; settings: pre-treatment 2.4
Experimental: as §5

## CC1(C)CN=C(N2CCN(c3ncnc4sc(CC(F)(F)F)cc34)CC2)S1 [MI-2-2]
Fibroblasts (MRCS) [1]
  survival of fibroblasts (MRCS): highly resistant; also recorded: minimal impact on the survival
[2]
  pIC50: 8.00
[3]
  survival of normal neural precursors (NPC): highly resistant; also recorded: minimal impact on the survival
040114 xenografts
  BLI signal fold change in 040114 xenografts: significant reduction in signal fold change
[4]
  In vivo blood-brain barrier (BBB) penetration: penetration was demonstrated
  maintenance of therapeutic levels: > 6 h
DIPGVI xenografts
  BLI signal in DIPGVI xenografts: no significant difference in BLI signal
042314
  pIC50: 7.58
Fibroblasts (MRCS) [5]
  depletion of fibroblasts: not depleted at sub-micromolar doses
Glioblastoma 050715 [6]
  pIC50: 7.08
Glioblastoma 040811 [7]
  pIC50: 6.95
SU-DIPGVI [8]
  pIC50: 6.92
hES derived NPCs
  depletion of NPCs: not depleted at sub-micromolar doses
Glioblastoma 040114 [9]
  pIC50: 7.44
SU-DIPGIV [10]
  pIC50: 7.03
Glioblastoma 030613 [11]
  pIC50: 8.02
Glioblastoma 070909 [12]
  pIC50: 7.87
Astrocytes [13]
  depletion of astrocytes: not depleted at sub-micromolar doses
SU-DIPGVI [14]
  TUNEL % post-treatment: 14.3, 17.9%
Fibroblasts [15]
  TUNEL % post-treatment: 0.4, 0.0%
SU-DIPGIV [16]
  TUNEL % post-treatment: 7.6, 21.4%
NPC [17]
  TUNEL % post-treatment: 3.8, 4.0%
Glioblastoma 050715 [18]
  Ki67 % post-treatment: 11.9, 7.8%
Glioblastoma 040811 [19]
  Ki67 % post-treatment: 28.4, 22.5%
SU-DIPGVI [20]
  Ki67 % post-treatment: 26.5, 14.4* %
Glioblastoma 040114 [21]
  Ki67 % post-treatment: 56.0, 36.1* %
Fibroblasts [22]
  Ki67 % post-treatment: 29.6, 27.5%
SU-DIPGIV [23]
  Ki67 % post-treatment: 34.9, 16.0* %
Glioblastoma 030613 [24]
  Ki67 % post-treatment: 30.4, 16.2* %
NPC [25]
  Ki67 % post-treatment: 10.6, 12.1%
Glioblastoma 070909 [26]
  Ki67 % post-treatment: 18.2, 10.8* %
Astrocytes [27]
  Ki67 % post-treatment: 2.4, 4.3%
